From EP2386565A2, “Compounds and methods to inhibit or augment an inflammatory response” (Cambridge Enterprise Ltd., priority 1999, dated 2000)
Values joined by “and” are separate entries in the source; they are usually repeats but may differ in a detail not shown here. Identical values can stand only once. “Also recorded” adds a separate entry of the source. Positions of bridges follow the written chain, without caps; N, C: chain ends. Non-standard residues stand in square brackets, D forms with d. Residues, ends and D or L forms follow the SMILES beside them.

Assays:
[1] = test system: ovalbumin-induced pulmonary inflammation, IgE, IL-4 and recall responses; experiment: Ovalbumin-induced asthma / hypersensitivity model; format: in vivo, mice; set-up: Total IgE (Serum), individual mice m1-m4 / Total IgE (Serum), Avg.: unit not given here; settings: for ng/ml IgE (4X avg.): serum; for splenocyte recall response to OVA (in words): versus positive controls
Method: A third study assessed the efficacy of daily dosing with CRD-Leu4Ile11Cys13 peptide 3(3-12)[MCP-1] to reduce OVA-induced pulmonary inflammation. Mice were sensitized with 0.1 mg of ovalbumin or PBS (diluent control) intraperitoneally in the absence of the test agent. […] These treatments were given daily from day 8 through day 21. On day 8, thirty minutes following treatment, mice were challenged intratracheally with 1% ovalbumin or PBS. On days 15, 18, and 21, thirty minutes following treatment, mice were challenged intratracheally with 2% ovalbumin or PBS. Mice were sacrificed 3 hours post-ovalbumin challenge, on day 21. Lungs were collected for histopathology, and for isolation of cells for total cell counts and FACS analysis. Bronchalveolar lavage (BAL) was collected for eicosinoid levels. Serum was collected for IgE and IL-4 levels. Spleens were collected for cytokine recall responses. […]

[2] = 8.8 mg i.v. bolus
[3] = Serum half-life of glucose conjugate after s.c. injection; format: in vivo, rats; settings: unmodified peptide, comparison value
Method: To determine whether sugar conjugates of an agent of the invention had increased plasma half-lives, a glucose conjugate of CRD-Leu4Ile11Cys13 peptide 3(3-12)[MCP-1] was prepared and administered to rats. The conjugate was synthesized by mixing D-glucose (50 mM) and CRD-Leu4Ile11Cys13 peptide 3(3-12)[MCP-1] (1 mM) in phosphate buffered saline and incubating at room temperature for 16 hours. The reaction mixture was then subject to analytical HPLC which indicated a yield of about 30%. The material was then treated with cyanoborohydride to effect reduction of the schiffs base linkage and stabilize the glucosides for purification. The stabilized glucosides were then subjected to preparative HPLC and the mono- and di-substituted glucosides prepared separately. The monoglucoside was obtained at >90% purity in approximately 10% yield, and it is likely that the material is a mixture of Lys5-glucoside and Lys-7 glucoside.
The CRD-Leu4Ile11Cys13 peptide 3(3-12)[MCP-1] monoglucoside was injected into 3 rats (5 mg per rat via s.c. route in sterile PBS). Blood samples were withdrawn through an i.v. cannula at various time points, and CRD-Leu4Ile11Cys13 peptide 3(3-12)[MCP-1] glucoside was quantitated in the serum.

trypsin = experiment: Stability against enzymatic destruction; format: in vitro ADME; settings: 5 units trypsin for 2 hrs at 37°C
Source text: For example, to prepare a peptide 3 derivative, peptide 3(3-12)[MCP-1] was modified according to Jameson et al. (Nature, 368, 744 (1994)), which yielded CRD-Cys13Leu4Ile11peptide 3(3-12)[MCP-1] (Figure 3).

[4] = Group 5: Ova on days 8, 15, 18, 21, treat BID 14 days, sacrifice day 34 (No recent Ova challenge), 0 µg/ml Ova
[5] = Group 5: PBS on days 8, 15, 18, 21, treat BID 14 days, sacrifice day 34 (No recent Ova challenge), 0 µg/ml Ova

CC[C@@H](C)[C@H]1NC(=O)[C@@H](CCC(N)=O)NC(=O)[C@H](N)CSSC[C@H](C(N)=O)NC(=O)[C@@H](CC(C)C)NC(=O)[C@@H](CC(=O)O)NC(=O)[C@H]2CCCN2C(=O)[C@@H](CCCCN)NC(=O)[C@@H](CCC(N)=O)NC(=O)[C@@H](CCCCN)NC(=O)[C@@H](Cc2c[nH]c3ccccc23)NC1=O (H-[dC][dQ][dI][dW][dK][dQ][dK][dP][dD][dL][dC]-NH2; disulfide 1-11)
Total IgE (1 week splenocyte cultures) ([1]; Group 4, 50 µg/ml Ova): 0.082 ng/mL
Total IgE (1 week splenocyte cultures), Avg. ([1]; Group 4, 50 µg/ml Ova): 0.021
Total IgM + IgG (1 week splenocyte cultures), Avg. ([1]; Group 4, 50 µg/ml Ova): 416.86
Total IgE (1 week splenocyte cultures), individual mice m1-m4 ([1]; Group 4, 50 µg/ml Ova, listed as CRD-Leu4Ile11Cys13peptide 3(3-12)[MCP-1]): 0.013 and 0.043 and 0.008 and 0.018
Total IgM + IgG (1 week splenocyte cultures), individual mice m1-m4 ([1]; Group 4, 50 µg/ml Ova, listed as CRD-Leu4Ile11Cys13 peptide 3(3-12)[MCP]): 338.50 and 679.86 and 487.87 and 161.20
ng/ml IgE (4X avg.) ([1]; Group 4): 2.482 ng/mL
Total IgE (Serum), Avg. ([1]; Group 5): 1.102
Total IgE (1 week splenocyte cultures), individual mice m1-m4 ([1]; Group 5 (No recent Ova challenge), 0 µg/ml Ova): 0.008 and 0.033 and 0.000 and 0.024
Total IgE (Serum), individual mice m1-m4 ([1]; Group 5 (treated 14 days, no recent Ova challenge)): 0.625 and 1.870 and 0.838 and 1.073
IL-4 Assays, pg/ml IL-4, Avg. of Group [1, 4]: 8.05 pg/mL
IL-4 Assays, pg/ml IL-4, individual mice m1-m4 [1, 4]: 9.09 pg/mL and 3.80 pg/mL and 12.89 pg/mL and 6.42 pg/mL
Total IgM + IgG (1 week splenocyte cultures), Avg. [1, 5]: 20.05
Total IgM + IgG (1 week splenocyte cultures), individual mice m1-m4 [1, 5]: 26.54 and 15.44 and 21.35 and 16.89
Total IgE (1 week splenocyte cultures) ([1]; Group 5, 0 µg/ml Ova): 0.065 ng/mL
Total IgE (1 week splenocyte cultures), Avg. ([1]; Group 5, 0 µg/ml Ova): 0.016
IL-4 Assays, pg/ml IL-4, Avg. of Group ([1]; Group 5, 5 µg/ml Ova): 6.33 pg/mL
IL-4 Assays, pg/ml IL-4, individual mice m1-m4 ([1]; Group 5, 5 µg/ml Ova): 5.70 pg/mL and 4.43 pg/mL and 10.09 pg/mL and 5.10 pg/mL
Total IgE (1 week splenocyte cultures) ([1]; Group 5, 5 µg/ml Ova): 0.082 ng/mL
Total IgE (1 week splenocyte cultures), Avg. ([1]; Group 5, 5 µg/ml Ova): 0.021
Total IgE (1 week splenocyte cultures), individual mice m1-m4 ([1]; Group 5, 5 µg/ml Ova): 0.003 and 0.065 and 0.000 and 0.014
Total IgM + IgG (1 week splenocyte cultures), Avg. ([1]; Group 5, 5 µg/ml Ova): 53.22
Total IgM + IgG (1 week splenocyte cultures), individual mice m1-m4 ([1]; Group 5, 5 µg/ml Ova): 64.20 and 31.21 and 67.94 and 49.53
IL-4 Assays, pg/ml IL-4, Avg. of Group ([1]; Group 5, 50 µg/ml Ova): 5.61 pg/mL
IL-4 Assays, pg/ml IL-4, individual mice m1-m4 ([1]; Group 5, 50 µg/ml Ova): 7.02 pg/mL and 6.10 pg/mL and 4.74 pg/mL and 4.59 pg/mL
Total IgE (1 week splenocyte cultures) ([1]; Group 5, 50 µg/ml Ova): 0.021 ng/mL
Total IgE (1 week splenocyte cultures), Avg. ([1]; Group 5, 50 µg/ml Ova): 0.005
Total IgE (1 week splenocyte cultures), individual mice m1-m4 ([1]; Group 5, 50 µg/ml Ova): 0.000 (2×) and 0.020 and 0.001
Total IgM + IgG (1 week splenocyte cultures), Avg. ([1]; Group 5, 50 µg/ml Ova): 111.41
Total IgM + IgG (1 week splenocyte cultures), individual mice m1-m4 ([1]; Group 5, 50 µg/ml Ova): 86.16 and 80.04 and 189.70 and 89.74
ng/ml IgE (4X avg.) ([1]; Group 5): 4.406 ng/mL
inflammatory infiltrates in the lung, histology (in words) ([1]; first study, high dose): minimal to no inflammatory infiltrates
reduction in IL-4 ([1]; second study, dose-dependent): 85%
reduction in macrophages ([1]; second study, dose-dependent): 74%
reduction in total cells in the lung ([1]; second study, dose-dependent): approximately 50%
reduction in IgE ([1]; second study, s.c. 10.3 µg-1.03 mg before OVA challenges, dose-dependent): 60%
cells in the lungs, total counts / FACS (in words) ([1]; versus PBS + OVA positive controls, study and dose as in the block): significantly lower numbers of CD3, CD4, B220, and Mac-1 cells; also recorded: significantly lower percentages of macrophages; also recorded: significantly lower numbers of macrophages, B cells, and CD4+ T cells; also recorded: no significant reduction of total cells in the lungs
IgE levels (in words) ([1]; versus PBS + OVA positive controls, study as in the block): not detectable above background; also recorded: significantly lower; also recorded: significantly reduced; also recorded: reduced levels of serum IgE
splenocyte recall response to OVA (in words) ([1]; study as in the block): reduced levels of IL-4, IgE, and total IgG and IgM
splenocyte recall response to OVA (in words) ([1]; study as in the block, listed as CRD-Leu4Ile11Cys13peptide 3(3-12)[MCP-1]): significantly less IL-4
time until serum concentrations decline below LLOQ (in words) [2]: within four hours
T1/2α [3]: 15 min
stability against enzymatic destruction (in words) (trypsin): stable
